Results published in ChEMBL document CHEMBL4402608 (J Med Chem, 2020).

Columns and labels:
Assay type in all cases: cell-based; call rule not given here
D(2) dopamine receptor [1] = molecular target: T1, D(2) dopamine receptor (Homo sapiens, UniProt P14416); assay: Agonist activity at human D2R expressed in CHOK1 cells assessed as induction of beta-arrestin recruitment measured after 90 mins by beta-galactosidase based PathHunter assay
D(2) dopamine receptor [2] = molecular target: T1, D(2) dopamine receptor; assay: Antagonist activity at human D2R expressed in CHOK1 cells assessed as inhibition of dopamine-induced beta-arrestin recruitment measured after 120 mins by beta-galactosidase based PathHunter assay
D(3) dopamine receptor = D(3) dopamine receptor (Homo sapiens, UniProt P35462); assay: Agonist activity at human D3R expressed in CHOK1 cells assessed as induction of beta-arrestin recruitment measured after 90 mins by beta-galactosidase based PathHunter assay

Compound | EC50 (D(2) dopamine receptor [1]; read-out: EC50) [nM] | IC50 (D(2) dopamine receptor [2]; read-out: IC50) [nM] | EC50 (D(2) dopamine receptor [1]) | EC50 (D(3) dopamine receptor; read-out: EC50) [nM] | EC50 (D(3) dopamine receptor) | IC50 (D(2) dopamine receptor [2])
COc1ccc(C(=O)N2CCN(CCOc3ccccc3)CC2)cc1 | 2300 | > 100000 | – | – | – | –
CCc1ccc(OCCN2CCN(C(=O)c3cc4ccccc4[nH]3)CC2)cc1 | – | > 50000 | Not Active | – | – | –
CCc1ccc(OCCN2CCN(C(=O)c3ccc(OC)cc3)CC2)cc1 | – | > 50000 | Not Active | 2600 | – | –
COc1ccc(OCCN2CCN(S(=O)(=O)c3ccc(OC)cc3)CC2)cc1 | > 100000 | – | – | – | Not Active | Not Active
COc1ccc(OCCN2CCN(C(=O)c3ccc(OC)cc3)CC2C)cc1 (stereo not given) | – | > 100000 | Not Active | 4400 | – | –
CC(C)(C)c1ccc(OCCN2CCN(C(=O)c3cc4ccccc4[nH]3)CC2)cc1 | – | > 100000 | Not Active | – | Not Active | –
COc1ccc(OCCN2CCN(C(=O)c3cc4c(OC)cccc4[nH]3)CC2)cc1 | 5200 | > 100000 | – | – | – | –
COc1ccc(OCCCN2CCN(C(=O)c3cc4ccccc4[nH]3)CC2)cc1 | – | – | – | – | Not Active | –
COc1ccc(OCCN2CCN(C(=O)c3nc4ccccc4[nH]3)CC2)cc1 | – | > 50000 | Not Active | 192 | – | –
COc1ccc(C(=O)N2CCN(CCOc3cc(OC)cc(OC)c3)CC2)cc1 | – | > 50000 | Not Active | – | Not Active | –
COc1ccc(SCCN2CCN(C(=O)c3cc4ccccc4[nH]3)CC2)cc1 | – | > 100000 | Not Active | – | Not Active | –
CSc1ccc(OCCN2CCN(C(=O)c3cc4ccccc4[nH]3)CC2)cc1 | – | > 100000 | Not Active | 630 | – | –
COc1cccc(OCCN2CCN(C(=O)c3cc4cc(OC)ccc4[nH]3)CC2)c1 | 1700 | – | – | 284 | – | Not Active
COc1ccc(C(=O)N2CCN(CCOc3ccccc3OC)CC2)cc1 | – | – | – | 278 | – | –
O=C(c1cc2ccc(Cl)cc2[nH]1)N1CCN(CCOc2cccnc2)CC1 | 183 | – | – | – | – | Not Active
COc1ccc(OCCN2CCN(C(=O)c3cc4cnccc4[nH]3)CC2)cc1 | 5500 | > 100000 | – | 576 | – | –
COc1ccc2cc(C(=O)N3CCN(CCOc4cccnc4)CC3)[nH]c2c1 | – | – | – | 6.4 | – | –
COc1ccc(OCCN(C)CCN(C)C(=O)c2ccc(OC)cc2)cc1 | – | – | – | – | Not Active | –
COc1ccc(OCCN2CCN(C(=O)c3cc4c(C)cccc4[nH]3)CC2)cc1 | – | – | – | 266 | – | –
COc1ccc(OCCN2CCN(C(=O)c3ccc(OC)cc3)C(C)C2)cc1 (stereo not given) | 4200 | > 100000 | – | – | – | –
Cc1cc(OCCN2CCN(C(=O)c3cc4ccccc4[nH]3)CC2)ccc1Cl | – | – | – | 114 | – | –
COc1ccc(OCCC2CCN(C(=O)c3ccc(OC)cc3)CC2)cc1 | – | – | Not Active | – | Not Active | Not Active
O=C(c1cc2cc(Cl)ccc2[nH]1)N1CCN(CCOc2cccnc2)CC1 | 1400 | – | – | – | – | Not Active
COc1ccc(OCCN2CCN(C(=O)c3cc4ccc(Cl)cc4[nH]3)CC2)cc1 | – | – | – | 225 | – | –
Cc1c(C(=O)N2CCN(CCOc3cccnc3)CC2)[nH]c2ccccc12 | – | – | – | 80 | – | –
COc1ccc(OCCN2CCN(C(=O)c3cc4ccc(C)cc4[nH]3)CC2)cc1 | 1100 | – | – | 130 | – | Not Active

Compound | EC50 (D(2) dopamine receptor [1]; read-out: EC50) [nM] | IC50 (D(2) dopamine receptor [2]; read-out: IC50) [nM] | EC50 (D(2) dopamine receptor [1]) | EC50 (D(3) dopamine receptor; read-out: EC50) [nM] | EC50 (D(3) dopamine receptor) | IC50 (D(2) dopamine receptor [2])
Cc1cccc2cc(C(=O)N3CCN(CCOc4cccnc4)CC3)[nH]c12 | – | – | – | 25.7 | – | –
O=C(c1cc2ccccc2s1)N1CCN(CCOc2cccnc2)CC1 | – | – | – | 13.3 | – | –
COc1ccc(OCCN2CCN(CC(=O)c3cc4ccccc4[nH]3)CC2)cc1 | – | – | Not Active | – | Not Active | Not Active
COc1ccc(N(C)CCN2CCN(C(=O)c3cc4ccccc4[nH]3)CC2)cc1 | – | > 100000 | Not Active | – | – | –
COc1cccc(OCCN2CCN(C(=O)c3nc4ccccc4[nH]3)CC2)c1 | – | – | – | 285 | – | –
COc1ccc(OCCN2CCN(C(=O)c3cc4cccnc4[nH]3)CC2)cc1 | – | – | – | 167 | – | –
COc1ccc(OCCN2CCN(C(=O)c3ccccc3)CC2)cc1 | – | > 50000 | Not Active | 548 | – | –
COc1cccc(OCCN2CCN(C(=O)c3cc4ccccc4[nH]3)CC2)c1 | – | – | – | 33.8 | – | –
O=C(c1cc2c(Cl)cccc2[nH]1)N1CCN(CCOc2cccnc2)CC1 | 217 | – | – | – | – | Not Active
COc1ccc(OCCN2CCN(C(=O)c3ccc4[nH]ccc4c3)CC2)cc1 | 2500 | 4600 | – | – | – | –
COc1ccc(OCCN2CCN(C(=O)c3cc4ccccc4s3)CC2)cc1 | – | – | – | 3300 | – | –
O=C(c1cc2ccccc2o1)N1CCN(CCOc2cccnc2)CC1 | 1700 | – | – | 42 | – | Not Active
COc1ccc(OCCN2CCN(C(=O)c3cc4c(Cl)cccc4[nH]3)CC2)cc1 | 7100 | > 100000 | – | 160 | – | –
COc1ccc(OCCN2CCN(C(=O)c3ccncc3)CC2)cc1 | – | – | Not Active | 22000 | – | Not Active
COc1ccc(C(=O)N2CCN(CCOc3cccnc3)CC2)c(C)c1 | 4600 | > 100000 | – | 116 | – | –
COc1ccc(OCCN2CCN(C(=O)c3cc4cc(C)ccc4[nH]3)CC2)cc1 | > 50000 | > 100000 | – | 611 | – | –
O=C(c1cc2ccccc2[nH]1)N1CCN(CCOc2ccc([N+](=O)[O-])cc2)CC1 | – | – | Not Active | – | – | Not Active
O=C(c1cc2cccc(Cl)c2[nH]1)N1CCN(CCOc2cccnc2)CC1 | 617 | – | – | – | – | Not Active
COc1ccc(OCCN2CCN(C(=O)c3cc4ncccc4[nH]3)CC2)cc1 | > 100000 | – | – | – | – | Not Active
COc1ccc(C(=O)N2CCN(CCOc3ccc(OC(F)(F)F)cc3)CC2)cc1 | – | > 50000 | Not Active | – | Not Active | –
O=C(c1ccc[nH]1)N1CCN(CCOc2cccnc2)CC1 | 6100 | > 100000 | – | 118 | – | –
COc1ccc(OCCN2CCN(C(=O)c3ccccc3OC)CC2)cc1 | – | > 100000 | Not Active | 2500 | – | –
COc1ccc(OCCN2CCN(C(=O)c3ccc(OC)cn3)CC2)cc1 | > 50000 | > 100000 | – | 2100 | – | –
COc1ccc(OCCN2CCN(C(=O)c3c[nH]c4ccccc34)CC2)cc1 | – | – | – | 210 | – | –
O=C(c1n[nH]c2ccccc12)N1CCN(CCOc2cccnc2)CC1 | 4100 | – | – | – | – | Not Active
COc1ccc(OCCN2CCN(C(=O)c3cc4cccc(C)c4[nH]3)CC2)cc1 | 10100 | > 100000 | – | 473 | – | –

Compound | EC50 (D(2) dopamine receptor [1]; read-out: EC50) [nM] | IC50 (D(2) dopamine receptor [2]; read-out: IC50) [nM] | EC50 (D(2) dopamine receptor [1]) | EC50 (D(3) dopamine receptor; read-out: EC50) [nM] | EC50 (D(3) dopamine receptor) | IC50 (D(2) dopamine receptor [2])
COc1ccc(OCCC2CCN(C(=O)c3cc4ccccc4[nH]3)CC2)cc1 | – | – | Not Active | – | Not Active | Not Active
COc1ccc(OCCN2CCN(C(=O)c3cc4cc(Cl)ccc4[nH]3)CC2)cc1 | – | – | Not Active | – | – | Not Active
Cn1c(C(=O)N2CCN(CCOc3cccnc3)CC2)cc2ccccc21 | 6200 | – | – | 37.6 | – | Not Active
COc1ccc(OCCN2CCN(C(=O)c3cc4cccc(OC)c4[nH]3)CC2)cc1 | 6000 | > 10000 | – | 980 | – | –
O=C(c1cc2ccccc2[nH]1)N1CCN(CCOc2ccc3[nH]ccc3c2)CC1 | – | – | – | 60.9 | – | –
Cc1ccc2[nH]c(C(=O)N3CCN(CCOc4cccnc4)CC3)cc2c1 | 1300 | – | – | 13 | – | Not Active
COc1ccc(C(=O)N2CCN(CCOc3cccc(OC)c3)CC2)cc1 | – | – | – | 98 | – | –
COc1ccc(OCCN2CCN(C(C)=O)CC2)cc1 | – | – | Not Active | 9700 | – | Not Active
O=C(c1cc2ccncc2[nH]1)N1CCN(CCOc2cccnc2)CC1 | – | – | – | 81 | – | –
COc1ccc(OCCN2CCN(c3ccc(OC)cc3)CC2)cc1 | – | > 50000 | Not Active | – | Not Active | –
COc1ccc(OCCN2CCN(C(=O)c3[nH]c4ccccc4c3C)CC2)cc1 | 4400 | > 100000 | – | 1900 | – | –
COc1ccc(C(=O)N2CCN(CCOc3cccnc3)CC2)cc1 | 2900 | > 100000 | – | 17 | – | –
O=C(c1nc2ccccc2[nH]1)N1CCN(CCOc2cccnc2)CC1 | 2400 | – | – | – | – | Not Active
COc1cccc(OCCN2CCN(C(=O)c3cc4cccnc4[nH]3)CC2)c1 | 128 | – | – | 50 | – | Not Active
Cc1cccc2[nH]c(C(=O)N3CCN(CCOc4cccnc4)CC3)cc12 | 180 | – | – | – | – | Not Active
COc1ccc(OCCN2CCN(C(=O)c3cc4ccncc4[nH]3)CC2)cc1 | 7800 | > 100000 | – | 810 | – | –
COc1ccc(OCCN2CCN(C(=O)c3cccc(OC)c3)CC2)cc1 | – | – | – | 550 | – | –
O=C(c1cc2ccccc2[nH]1)N1CCN(CCOc2ccc3c(c2)OCO3)CC1 | – | – | – | 290 | – | –
COc1ccc(OCCCCN2CCN(C(=O)c3cc4ccccc4[nH]3)CC2)cc1 | – | – | – | – | Not Active | –
COc1ccc(OCCN2CCN(C(=O)C3CCCCC3)CC2)cc1 | – | > 50000 | Not Active | > 50000 | – | –
O=C(c1cc2ccccc2[nH]1)N1CCN(CCOc2ccc(Br)cc2)CC1 | – | > 100000 | Not Active | – | – | –
O=C(c1cc2ncccc2[nH]1)N1CCN(CCOc2cccnc2)CC1 | 3000 | – | – | 200 | – | Not Active
COc1ccc(OCCN2CCN(C(=O)c3cc4cc(OC)ccc4[nH]3)CC2)cc1 | 7800 | > 100000 | – | 520 | – | –
COc1ccc2[nH]c(C(=O)N3CCN(CCOc4cccnc4)CC3)cc2c1 | 2600 | – | – | – | – | Not Active
COc1ccc(OCC(C)N2CCN(C(=O)c3ccc(OC)cc3)CC2)cc1 (racemic) | – | > 100000 | Not Active | – | – | –
